“And” between values parts separate entries of the source, which are not always exact repeats. Equal values may be shown once. Read-outs that look alike come from different tables or passages of the source.
System: TNBC

SMILES | median calibrated efficacy rate α of the drug | median calibrated efficacy rate α of the drug (good-response patient (100% shrinkage of tumor volume at completion of A/C), Framework 1) [day⁻¹] | median calibrated efficacy rate α of the drug (poor-response patient (33% shrinkage of tumor volume at completion of A/C), Framework 1) [day⁻¹]
O=P1(N(CCCl)CCCl)NCCCO1 (stereo not drawn) [cyclophosphamide] | 0.60 day⁻¹ and 0.34 day⁻¹ |  | 
COc1cccc2c1C(=O)c1c(O)c3c(c(O)c1C2=O)C[C@@](O)(C(=O)CO)C[C@@H]3O[C@H]1C[C@H](N)[C@H](O)[C@H](C)O1 [doxorubicin] |  | 0.47 | 0.24

Source: patent US20250302394A1, “QUANTITATIVE MAGNETIC RESONANCE IMAGING AND TUMOR FORECASTING” (priority 2021, published 2025)
